Measured values published in patent US20240408099A1, “COMBINATION […] OF KRAS G12D INHIBITORS WITH Pan ErbB FAMILY INHIBITORS” (MIRATI THERAPEUTICS, INC., priority 2021, published 2024).

Tests used:
Assay type in all cases: in vivo, nude/nude mice
AsPC-1 cells [1] = test: AsPC-1 TGI 26 pancreatic cancer xenograft, tumor volumes; settings: for Average Tumor Volumes: 30 mg/kg IP BID daily
Experimental: (§1) Immunocompromised nude/nude mice are inoculated in the right hind flank with cells harboring a KRas G12D mutation. When tumor volumes reach between 200-400 mm^3 in size, the mice are divided into four to five groups of 5 mice each. The first group is administered vehicle only. […] The fourth or last groups are administered the single agent dose of the KRas G12D inhibitor using the twice daily schedule and/or the 2 sequential days followed by 5 days off schedule in combination with the single agent dose of one of the EGFR inhibitors. […] Tumor volumes are measured using a caliper every two-three days and tumor volumes are calculated by the formula: […].
Experimental Procedures. 20 nude/nude mice were inoculated with AsPC-1 cells in the right hind flank. When the tumors reached ˜200 mm^3 four treatment groups were established with five mice per group.

AsPC-1 cells [2] = test: AsPC-1 TGI-42 pancreatic cancer xenograft, tumor volumes
Experimental: Immunocompromised nude/nude mice are inoculated in the right hind flank with cells harboring a KRas G12D mutation. When tumor volumes reach between 200-400 mm^3 in size, the mice are divided into four to five groups of 5 mice each. The first group is administered vehicle only. […] The fourth or last groups are administered the single agent dose of the KRas G12D inhibitor using the twice daily schedule and/or the 2 sequential days followed by 5 days off schedule in combination with the single agent dose of one of the EGFR inhibitors. The treatment period varies from cell line to cell line but typically is between 15-40 days. Tumor volumes are measured using a caliper every two-three days and tumor volumes are calculated by the formula: […].
(§2) 20 to 30 nude/nude mice per study were inoculated in the right hind limb with 5×10^6 LS180 cells, AsPC-1 cells, GP2D cells, Panc 02.03 cells, SW1990 cells, or SNU-1033 cells.
Experimental Procedures. 30 nude/nude mice were inoculated with AsPC-1 cells in the right hind flank. When the tumors reached ˜300 mm^3 six treatment groups were established with five mice per group.

SW1990 cells = test: SW1990 TGI MDS #200407-807 pancreatic cancer xenograft, tumor volumes; settings: for Average Tumor Volumes: 30 mg/kg BID Daily
Experimental: as §1, §2
Experimental Procedures. 30 nude/nude mice were inoculated with SW1990 cells in the right hind flank. When the tumors reached ˜300 mm^3 six treatment groups were established with five mice per group.

GP2D cells = test: GP2D TGI MDS 200108-807 colorectal cancer xenograft, tumor volumes; settings: for Average Tumor Volumes: 30 mg/kg BID Daily
Experimental: as §1, §2
Experimental Procedures. 20 nude/nude mice were inoculated with GP2D cells in the right hind flank. When the tumors reached ˜300 mm^3 four treatment groups were established with five mice per group.

Panc 02.03 = Panc 02.03 TGI-43 pancreatic cancer xenograft (Table 5), tumor volumes; settings: for Average Tumor Volumes: 30 mg/kg BID 2x/week
Experimental: as §1
20 to 30 nude/nude mice per study were inoculated in the right hind limb with 5×10^6 LS180 cells, AsPC-1 cells, GP2D cells, Panc 02.03 cells, SW1990 cells, or SNU-1033 cells. […]

LS180 cells = test: LS180 colon cancer xenograft, tumor volumes; settings: for tumor growth inhibition: 30 mg/kg BID, single agent, Day 15
Experimental: as §1, §2
Experimental Procedures. 25 nude/nude mice were inoculated with LS180 cells in the right hind flank. When the tumors reached ˜250 mm^3 five treatment groups were established with five mice per group.

[3] = 30 mg/kg BID 2x/week, Study Day 1
[4] = 30 mg/kg BID Daily, Study Day 1

Structure (SMILES): C#Cc1c(F)ccc2cc(O)cc(-c3ncc4c(N5C[C@H]6CC[C@@H](C5)N6)nc(OC[C@@]56CCCN5C[C@H](F)C6)nc4c3F)c12 [MRTX1133, 4-(4-((1R,5S)-3,8-diazabicyclo[3.2.1]octan-3-yl)-8-fluoro-2-(((2R,7aS)-2-fluorohexahydro-1H-pyrrolizin-7a-yl)methoxy)pyrido[4,3-d]pyrimidin-7-yl)-5-ethynyl-6-fluoronaphthalen-2-ol]
- Average Tumor Volumes (AsPC-1 cells [1]; Study Day 0): 197.468 mm^3
- Average Tumor Volumes (AsPC-1 cells [1]; Study Day 4): 194.514 mm^3
- Average Tumor Volumes (AsPC-1 cells [1]; Study Day 7): 175.198 mm^3
- Average Tumor Volumes (AsPC-1 cells [1]; Study Day 11): 159.756 mm^3
- Average Tumor Volumes (AsPC-1 cells [1]; Study Day 14): 172.986 mm^3
- Average Tumor Volumes (AsPC-1 cells [1]; Study Day 18): 168.412 mm^3
- Average Tumor Volumes (AsPC-1 cells [1]; Study Day 21): 143.928 mm^3
- Average Tumor Volumes (AsPC-1 cells [1]; Study Day 25): 149.308 mm^3
- tumor regression (AsPC-1 cells [1]; 30 mg/kg twice daily, single agent, Day 25): −24%
- Average Tumor Volumes (AsPC-1 cells [2]; [3]): 325.894 mm^3
- Average Tumor Volumes (AsPC-1 cells [2]; 30 mg/kg BID 2x/week, Study Day 6): 394.182 mm^3
- Average Tumor Volumes (AsPC-1 cells [2]; 30 mg/kg BID 2x/week, Study Day 9): 472.586 mm^3
- Average Tumor Volumes (AsPC-1 cells [2]; 30 mg/kg BID 2x/week, Study Day 13): 496.598 mm^3
- Average Tumor Volumes (AsPC-1 cells [2]; 30 mg/kg BID 2x/week, Study Day 16): 554.052 mm^3
- Average Tumor Volumes (AsPC-1 cells [2]; 30 mg/kg BID 2x/week, Study Day 20): 586.5625 mm^3
- Average Tumor Volumes (AsPC-1 cells [2]; 30 mg/kg BID 2x/week, Study Day 23): 640.49 mm^3
- Average Tumor Volumes (AsPC-1 cells [2]; 30 mg/kg BID 2x/week, Study Day 27): 679.96 mm^3
- Average Tumor Volumes (AsPC-1 cells [2]; 30 mg/kg BID 2x/week, Study Day 30): 795.11 mm^3
- Average Tumor Volumes (AsPC-1 cells [2]; 30 mg/kg BID 2x/week, Study Day 34): 862.74 mm^3
- Average Tumor Volumes (AsPC-1 cells [2]; [4]): 323.454 mm^3
- Average Tumor Volumes (AsPC-1 cells [2]; 30 mg/kg BID Daily, Study Day 6): 356.398 mm^3
- Average Tumor Volumes (AsPC-1 cells [2]; 30 mg/kg BID Daily, Study Day 9): 374.684 mm^3
- Average Tumor Volumes (AsPC-1 cells [2]; 30 mg/kg BID Daily, Study Day 13): 316.51 mm^3
- Average Tumor Volumes (AsPC-1 cells [2]; 30 mg/kg BID Daily, Study Day 16): 291.71 mm^3
- Average Tumor Volumes (AsPC-1 cells [2]; 30 mg/kg BID Daily, Study Day 20): 269.246 mm^3
- Average Tumor Volumes (AsPC-1 cells [2]; 30 mg/kg BID Daily, Study Day 23): 213.334 mm^3
- Average Tumor Volumes (AsPC-1 cells [2]; 30 mg/kg BID Daily, Study Day 27): 195.354 mm^3
- Average Tumor Volumes (AsPC-1 cells [2]; 30 mg/kg BID Daily, Study Day 30): 216.072 mm^3
- Average Tumor Volumes (AsPC-1 cells [2]; 30 mg/kg BID Daily, Study Day 34): 266.324 mm^3
- tumor regression (AsPC-1 cells [2]; 30 mg/kg BID daily, single agent, Day 34): −9%
- Average Tumor Volumes (SW1990 cells; Study Day 2): 265.08 mm^3
- Average Tumor Volumes (SW1990 cells; Study Day 6): 194.42 mm^3
- Average Tumor Volumes (SW1990 cells; Study Day 9): 187.24 mm^3
- Average Tumor Volumes (SW1990 cells; Study Day 13): 241.84 mm^3
- Average Tumor Volumes (SW1990 cells; Study Day 16): 235.32 mm^3
- Average Tumor Volumes (SW1990 cells; Study Day 20): 214.98 mm^3
- Average Tumor Volumes (SW1990 cells; Study Day 23): 195.04 mm^3
- Average Tumor Volumes (SW1990 cells; Study Day −1): 362.82 mm^3
- tumor regression (SW1990 cells; 30 mg/kg BID daily, single agent, Day 23): −46%
- Average Tumor Volumes (GP2D cells; Study Day 2): 341.3 mm^3
- Average Tumor Volumes (GP2D cells; Study Day 6): 282.98 mm^3
- Average Tumor Volumes (GP2D cells; Study Day 9): 237.18 mm^3
- Average Tumor Volumes (GP2D cells; Study Day 13): 244.1 mm^3
- Average Tumor Volumes (GP2D cells; Study Day 16): 198.725 mm^3
- Average Tumor Volumes (GP2D cells; Study Day 20): 288.05 mm^3
- Average Tumor Volumes (GP2D cells; Study Day 23): 339 mm^3
- Average Tumor Volumes (GP2D cells; Study Day 27): 385.85 mm^3
- Average Tumor Volumes (GP2D cells; Study Day 30): 394.05 mm^3
- tumor growth inhibition (GP2D cells; 30 mg/kg BID daily, single agent, Day 30): 96%
- Average Tumor Volumes (Panc 02.03; Study Day 1): 329.18 mm^3
- Average Tumor Volumes (Panc 02.03; Study Day 4): 265.246 mm^3
- Average Tumor Volumes (Panc 02.03; Study Day 8): 386.354 mm^3
- Average Tumor Volumes (Panc 02.03; Study Day 11): 392.042 mm^3
- Average Tumor Volumes (Panc 02.03; Study Day 15): 480.434 mm^3
- Average Tumor Volumes (Panc 02.03; Study Day 18): 496.496 mm^3
- Average Tumor Volumes (Panc 02.03; Study Day 22): 549.618 mm^3
- tumor growth inhibition (Panc 02.03; 30 mg/kg BID (twice per week), single agent, Day 22): 72%
- Average Tumor Volumes (LS180 cells; [3]): 272.338 mm^3
- Average Tumor Volumes (LS180 cells; 30 mg/kg BID 2x/week, Study Day 4): 570.528 mm^3
- Average Tumor Volumes (LS180 cells; 30 mg/kg BID 2x/week, Study Day 8): 1134.668 mm^3
- Average Tumor Volumes (LS180 cells; 30 mg/kg BID 2x/week, Study Day 11): 1439.99 mm^3
- Average Tumor Volumes (LS180 cells; 30 mg/kg BID 2x/week, Study Day 15): 1899.832 mm^3
- Average Tumor Volumes (LS180 cells; [4]): 268.94 mm^3
- Average Tumor Volumes (LS180 cells; 30 mg/kg BID Daily, Study Day 4): 418.808 mm^3
- Average Tumor Volumes (LS180 cells; 30 mg/kg BID Daily, Study Day 8): 593.71 mm^3
- Average Tumor Volumes (LS180 cells; 30 mg/kg BID Daily, Study Day 11): 808.808 mm^3
- Average Tumor Volumes (LS180 cells; 30 mg/kg BID Daily, Study Day 15): 1197.106 mm^3
- tumor growth inhibition (LS180 cells; daily administration): 45%
- tumor growth inhibition (LS180 cells; twice per week administration): 4%
